Results on 14 molecules are retold here after patent US11040981B2, “Pyrrolotriazine compounds and methods of inhibiting TAM kinases” (Syros Pharmaceuticals, Inc., priority 2017, dated 2021).

The target of one experiment is T1, FLT3 (Homo sapiens, UniProt P36888).
T1 sequence (P36888 27-993): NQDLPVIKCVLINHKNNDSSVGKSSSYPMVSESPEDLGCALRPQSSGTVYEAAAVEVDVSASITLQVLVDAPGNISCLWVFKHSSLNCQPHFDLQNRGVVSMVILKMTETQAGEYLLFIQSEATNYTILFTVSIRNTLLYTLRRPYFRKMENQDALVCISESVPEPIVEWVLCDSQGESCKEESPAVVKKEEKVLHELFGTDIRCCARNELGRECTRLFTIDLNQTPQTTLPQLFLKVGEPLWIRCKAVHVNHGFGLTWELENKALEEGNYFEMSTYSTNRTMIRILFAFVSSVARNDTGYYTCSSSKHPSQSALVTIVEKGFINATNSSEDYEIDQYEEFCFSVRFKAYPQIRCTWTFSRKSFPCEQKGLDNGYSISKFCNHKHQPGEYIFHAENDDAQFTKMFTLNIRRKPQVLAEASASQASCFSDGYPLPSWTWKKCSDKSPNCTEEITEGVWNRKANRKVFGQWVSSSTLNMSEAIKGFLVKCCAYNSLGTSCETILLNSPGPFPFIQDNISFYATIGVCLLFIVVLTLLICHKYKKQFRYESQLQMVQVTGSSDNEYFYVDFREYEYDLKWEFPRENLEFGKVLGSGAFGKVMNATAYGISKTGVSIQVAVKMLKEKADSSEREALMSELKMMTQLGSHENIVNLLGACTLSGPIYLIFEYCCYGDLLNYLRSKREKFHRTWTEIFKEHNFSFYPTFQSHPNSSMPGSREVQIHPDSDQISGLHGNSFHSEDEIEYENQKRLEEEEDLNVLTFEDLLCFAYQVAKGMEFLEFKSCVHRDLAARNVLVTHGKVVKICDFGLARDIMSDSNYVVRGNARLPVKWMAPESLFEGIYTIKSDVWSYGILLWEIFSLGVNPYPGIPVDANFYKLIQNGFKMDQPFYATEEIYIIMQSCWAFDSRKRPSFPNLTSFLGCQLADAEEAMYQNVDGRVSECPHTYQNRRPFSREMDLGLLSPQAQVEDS
Nature of the experiment: TR-FRET kinase activity assay, FLT3. Particulars: ATP at Km, 60 minutes. In kind it is biochemical. How it is done:
(§1) IC50 values for compound inhibition of AXL, FLT3, MERTK and TYRO3 activity were determined by using a TR-FRET activity assay. A polypeptide substrate with a fluorescent label is phosphorylated on a tyrosine by each enzyme, where the now phosphorylated product is bound by a Europium-labeled antibody specific to that phosphorylation site. The proximity between the antibody and the substrate gives a signal known as TR-FRET. As the enzyme is inhibited by compound, less phosphorylated peptide product is made causing a decrease in overall signal.
(§2) Activity assays were performed in a 384-well, small volume, black microplates in an active enzyme volume of 10 μL and final developed volume of 20 μL. Final assay conditions are 50 mM HEPES pH 7.5, 10 mM MgCl2, 1 mM EGTA, 0.01% Brij 35 and 1 mM DTT all at RT. Enzyme, substrate labeled peptide and compound are mixed, and then the reaction is initiated with the addition of ATP at Km concentration for each enzyme. The reaction is allowed to run 60 minutes and then quenched with a 12.5 mM EDTA (ethylenediamine tetraacetic acid) solution. The plate is then developed with the addition of Europium labeled antibody for a final volume of 20 μL and is then incubated for 30 minutes in darkness. Plates are read in a Pherastar plate reader. Data is analyzed in GraphPad PRISM.
(§3) The results of these assays are shown in Table 1, below, wherein “No.” designates compound number (FIG. 1); “A” represents a value of ≤100 nM; “B” a value of >100 nM and ≤1 μM; “C” a value of >1 μM and ≤10 μM; “D” a value of >10 μM; “ND” is not determined. The ratio of Mer to FLT3 is calculated as follows: FLT3 IC50/Mer IC50. “+” represents a ratio of >2.0 and <10; “++” represents a ratio of between 10 and 100; and “+++” represents a ratio of >100.

The next experiment addresses T2, MERTK (Homo sapiens, UniProt Q12866).
T2 sequence (Q12866 21-999): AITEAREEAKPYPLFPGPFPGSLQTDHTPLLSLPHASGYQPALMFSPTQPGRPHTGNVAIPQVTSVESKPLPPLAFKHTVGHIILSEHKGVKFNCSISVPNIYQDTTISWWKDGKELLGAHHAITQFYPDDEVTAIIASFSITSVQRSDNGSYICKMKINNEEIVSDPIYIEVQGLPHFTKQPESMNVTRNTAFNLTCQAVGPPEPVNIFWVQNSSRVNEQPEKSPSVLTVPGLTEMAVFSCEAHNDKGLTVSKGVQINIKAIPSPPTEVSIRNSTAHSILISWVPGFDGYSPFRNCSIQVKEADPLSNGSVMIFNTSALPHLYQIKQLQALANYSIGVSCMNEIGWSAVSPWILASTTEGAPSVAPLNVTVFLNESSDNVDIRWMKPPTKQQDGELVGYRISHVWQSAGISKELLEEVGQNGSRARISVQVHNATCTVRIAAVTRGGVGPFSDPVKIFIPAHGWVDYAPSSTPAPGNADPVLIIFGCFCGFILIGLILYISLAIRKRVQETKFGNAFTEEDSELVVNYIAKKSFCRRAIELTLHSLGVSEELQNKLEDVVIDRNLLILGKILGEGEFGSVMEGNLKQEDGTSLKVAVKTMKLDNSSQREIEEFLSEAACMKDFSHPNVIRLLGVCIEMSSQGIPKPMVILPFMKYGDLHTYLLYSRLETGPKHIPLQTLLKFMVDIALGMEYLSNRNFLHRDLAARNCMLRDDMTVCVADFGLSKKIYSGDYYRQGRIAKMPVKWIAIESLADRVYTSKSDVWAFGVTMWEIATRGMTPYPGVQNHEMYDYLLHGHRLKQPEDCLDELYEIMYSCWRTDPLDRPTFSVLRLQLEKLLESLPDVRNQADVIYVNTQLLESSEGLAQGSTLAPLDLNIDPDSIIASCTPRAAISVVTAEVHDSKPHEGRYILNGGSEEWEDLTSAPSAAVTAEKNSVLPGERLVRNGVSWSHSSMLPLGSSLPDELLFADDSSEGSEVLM
The experiment is described as follows: TR-FRET kinase activity assay, MERTK. The experiment is classed as biochemical. Particulars: for pIC50: TR-FRET activity assay, ATP at Km, 60 minutes, read-out: Mer IC50; for FLT3/Mer ratio (FLT3 IC50/Mer IC50): ratio of Mer to FLT3: FLT3 IC50/Mer IC50. How it is done: as §1, §2, §3

pIC50: −log10 of the molar value.

Molecule `COC[C@H](C)Nc1ncc2c(-c3ccn(C)n3)cc([C@H]3CC[C@H](O)CC3)n2n1` [Compound 208] gave a pIC50 at FLT3 of 5.00 to 6.00. In addition, on MERTK, the pIC50 is at least 7.00 and the “FLT3/Mer ratio (FLT3 IC50/Mer IC50)” value is given as “+++ (“+++” represents a ratio of >100)”.
Molecule `COCCn1cc(-c2cc([C@H]3CC[C@H](O)CC3)n3nc(N[C@@H](C)COC)ncc23)cn1` [Compound 209] showed a pIC50 at FLT3 of 6.00 to 7.00. Further, on MERTK, the pIC50 was at least 7.00 and the “FLT3/Mer ratio (FLT3 IC50/Mer IC50)” value is on record as “+++ (“+++” represents a ratio of >100)”.
For `COC[C@H](C)Nc1ncc2c(-c3cccc4c3CNC4=O)cc([C@H]3CC[C@H](O)CC3)n2n1` [Compound 210], in that order: 5.00 to 6.00, at least 7.00 and “+++ (“+++” represents a ratio of >100)”.
`COCC[C@@H](C)Nc1ncc2c(-c3ccc(CN4CCOCC4)cc3)cc([C@H]3CC[C@H](O)CC3)n2n1` [Compound 212] showed a pIC50 at FLT3 of 5.00 to 6.00. Moreover, on MERTK, the pIC50 was at least 7.00; the “FLT3/Mer ratio (FLT3 IC50/Mer IC50)” value was “++ (“++” represents a ratio of between 10 and 100)”.
Take `Cc1cc(-c2cc([C@H]3CC[C@H](O)CC3)n3nc(N[C@@H](C)CC(F)(F)F)ncc23)ccn1` [Compound 213]: the pIC50 against FLT3 and at MERTK was at least 7.00 each time. Further, the “FLT3/Mer ratio (FLT3 IC50/Mer IC50)” value at MERTK is “+++ (“+++” represents a ratio of >100)”.
Turning to `CC(C)OC[C@H](C)Nc1ncc2c(-c3ccc(CN4CCOCC4)cc3)cc([C@H]3CC[C@H](O)CC3)n2n1` [Compound 214], the pIC50 against FLT3 was 5.00 to 6.00. Also, on MERTK, the pIC50 was at least 7.00 and the “FLT3/Mer ratio (FLT3 IC50/Mer IC50)” value was “+++ (“+++” represents a ratio of >100)”.
For `Cc1cc(-c2cc([C@H]3CC[C@H](O)CC3)n3nc(N[C@@H](C)COC(C)C)ncc23)ccn1` [Compound 215], in that order: 5.00 to 6.00, at least 7.00 and “+++ (“+++” represents a ratio of >100)”.
Turning to `C[C@@H](CC1CC1)Nc1ncc2c(-c3ccc(CN4CCN(C)CC4)cc3)cc([C@H]3CC[C@H](O)CC3)n2n1` [Compound 216], the pIC50 against FLT3 and at MERTK was at least 7.00 each time. For the same molecule, the “FLT3/Mer ratio (FLT3 IC50/Mer IC50)” value at MERTK was “++ (“++” represents a ratio of between 10 and 100)”.
In turn, `COC[C@H](C)Nc1ncc2c(-c3cccc(CN4CCOCC4)c3)cc([C@H]3CC[C@H](O)CC3)n2n1` [Compound 217] showed a pIC50 at FLT3 of 6.00 to 7.00. At MERTK, the pIC50 is at least 7.00 and the “FLT3/Mer ratio (FLT3 IC50/Mer IC50)” value is given as “+++ (“+++” represents a ratio of >100)”.
For `COC[C@H](C)Nc1ncc2c(-c3cccc(CN4CCN(C)CC4)c3)cc([C@H]3CC[C@H](O)CC3)n2n1` [Compound 218], in that order: 6.00 to 7.00, at least 7.00 and “+++ (“+++” represents a ratio of >100)”.
`COC[C@H](C)Nc1ncc2c(-c3cncc(CN4CCOCC4)c3)cc([C@H]3CC[C@H](O)CC3)n2n1` [Compound 219] gave a pIC50 against FLT3 of 5.00 to 6.00. Besides, at MERTK, the pIC50 is at least 7.00 and the “FLT3/Mer ratio (FLT3 IC50/Mer IC50)” value was “+++ (“+++” represents a ratio of >100)”.
As to `COC[C@H](C)Nc1ncc2c(-c3cnn(Cc4cccnc4)c3)cc([C@H]3CC[C@H](O)CC3)n2n1` [Compound 220], on FLT3, the pIC50 was 6.00 to 7.00. Moreover, at MERTK, the pIC50 is at least 7.00 and the “FLT3/Mer ratio (FLT3 IC50/Mer IC50)” value is “+++ (“+++” represents a ratio of >100)”.
For `COCC(C)Nc1ncc2c(-c3cnn(C4COC4)c3)cc(C3CCC(O)CC3)n2n1` (stereo not drawn) [Compound 221] the same measures were 6.00 to 7.00, at least 7.00 and “+++ (“+++” represents a ratio of >100)”.
For `COC[C@H](C)Nc1ncc2c(-c3cnn(CCC#N)c3)cc([C@H]3CC[C@H](O)CC3)n2n1` [Compound 222], in that order: 6.00 to 7.00, at least 7.00 and “+++ (“+++” represents a ratio of >100)”.
